Assay results as given in patent EP0285267A2, “Pyridine derivatives for treatment and prevention of liver damage, and their preparation” (YAMANOUCHI PHARMACEUTICAL CO. LTD., priority 1987, dated 1988).

Legend:
[1] = tested on: serum GPT elevation due to carbon tetrachloride liver damage; assay: Carbon tetrachloride induced liver damage in rats, inhibition of serum GPT elevation; assay type: in vivo, Male Sprague Dawley rats; conditions: given twice (1 hour before and 3 hours after carbon tetrachloride 1 ml/kg orally), blood 24 hours after, route not given
Method: The experimental liver damage was induced with carbon tetrachloride as the challenging agent. Carbon tetrachloride caused liver damage resembling that of alcohol-induced liver injury.
Male Sprague Dawley rats weighing around 160 grams were used. Carbon tetrachloride was dissolved in olive oil to obtain 20% solution, which was administed in doses of 5ml/kg orally (carbon tetrachloride: 1 ml/ kg). The test compounds were suspended in Cremophor buffer for intraperitoneal administration, and in 0.5% methyl cellulose solution for oral administration; and the test solutions were administered in doses of 5ml/kg respectively. The administration of the test compound was conducted twice, namely, 1 hour before and 3 hours after the administration of carbon tetrachloride. 24 hours after the administration of carbon tetrachloride, blood was collected via the great abdominal vein, and the level of serum GPT was measured. […] Thus, the compounds of this invention are usuful for agents for treatment and prevention of liver damage.
Other compounds, of formula I-B, were also found to have activity inhibiting the elevation of GPT due to carbon tetrachloride administration.

[2] = tested on: increase in GPT level, galactosamine-induced liver damage; assay: D-galactosamine challenge in rats (test compound in 0.5 % methyl cellulose), inhibition of increase in serum GPT; assay type: in vivo, SD male rats; conditions: 30 mg/kg oral in 0.5 % methyl cellulose, twice (1 hour before and 3 hours after D-galactosamine 425mg/kg i.p.), blood 24 hours after
Method: Experimental liver damage was induced with D-galactosamine as the challenging agent. Liver damage caused by D-galactosamine resembled that of acute hepatitis. The galactosamine hepatitis model is described in known prior art.
Animals used: SD male rats (7 week age, about 220 g body weight)
Administration method of the challenge compound: • D-galactosamine was dissolved in a physiological sodium chloride aqueous solution, and this solution was administered intraperitoneally to give galactosamine-induced liver damage. (Administered dose: 425mg/4mllkg) Administration method of the test compound: The test compound was suspended in 0.5 % methyl cellulose solution, and administered in doses of 30 mg/5 mi/kg, orally. The test compound was administered twice (1 hour before the D-galactosamine administration and 3 hours after its administration). 24 hours after the D-galactosamine administration, blood was obtained from the pentobarbital-anesthetized rats,and the level of serum-GPT was determined.

[3] = Solubility in water (statement); assay type: physicochemical; conditions: qualitative statement
[4] = Absorbability / bioavailability (statement); assay type: in vivo; conditions: qualitative statement; oral suspension in 0.5 % methyl cellulose

Row | Compound | Inhibiting effect (%) (30mg/kg administration) [1] | Inhibition rate (%) (30mg/kg, oral administration) [2] | other results
1 | dimethyl 4-(3,4-methylenedioxy)phenyl-2,6-dimethyl-1,4-dihydropyridine-3,5-dicarboxylate [Example A] | 68.6% |  | 
2 | COC(=O)C1=C(C)NC(C)=C(C(=O)OC)C1c1ccc2c(c1C(=O)OC)OCO2 [Example 7, dimethyl 4-(2-methoxycarbonyl-3,4-meth-lenedioxy)phenyl-2,6-dimethyl-1,4-dihydropyridine-3,5-dicarboxylate] | 74.9% | 70.7% | 
3 | COC(=O)c1c(C)nc(C)c(C(=O)OC)c1-c1ccc2c(c1OC)OCO2 [Example 2, dimethyl 4-(2-methoxy-3,4-methylenedioxy)phenyl-2,6-dimethylpyridine-3,5-dicarboxylate] | 81.1% |  | 
4 | COC(=O)C1=C(C)NC(C)=C(C(=O)OC)C1c1cc2c(cc1Br)OCO2 [Example 22, Dimethyl 4-(3,4-methylenedioxy-6-bromo)phenyl-2,6-dimethyl-1,4-dihydropyridine-3,5-dicarboxylate] | 82.3% |  | 
5 | COC(=O)c1c(C)nc(C)c(C(=O)OC)c1-c1c([N+](=O)[O-])ccc2c1OCO2 [Example 36, Dimethyl 4-(2,3-methylenedioxy-6-nitro)phenyl-2,6-dimethylpyridine-3,5-dicarboxylate] | 89.7% |  | 
6 | COC(=O)c1c(C)nc(C)c(C(=O)OC)c1-c1cccc2c1OCO2 [Example U, dimethyl 4-(2,3-methylenedioxy)phenyl-2,6-dimethylpyridine-3,5-dicarboxylate] | 76.0% |  | 
7 | CCOc1c(N)c2c(c(OCC)c1OCC)C(C1c3c(cc4c(c3OC)OCO4)CCN1C)OC2=O (stereo not shown) [Tritoqualine] |  | 0% | solubility in water [3]: difficultly soluble in water; bioavailability (absorbability) [4]: low bioavailability
8 | COC(=O)c1c(-c2c(C(=O)OC)c(C)nc(C)c2C(=O)OC)cc(OC)c2c1OCO2 [Example 14] |  | 67.8% | 
9 | COC(=O)C1=C(C)NC(C)=C(C(=O)OC)C1c1ccccc1C(=O)OC [Example C, dimethyl 4-(2-methoxycarbonyl)phenyl-2,6-dimethyl-1,4-dihydropyridine-3,5-dicarboxylate] | 91.6% |  | 
10 | COC(=O)C1=C(C)NC(C)=C(C(=O)OC)C1c1cccc2c1OCO2 [Example P, dimethyl 4-(2,3-methylenedioxy)phenyl-2,6-dimethyl-1,4-dihydropyridine-3,5-dicarboxylate] | 85.4% |  | 
